Measurements reported in patent publication US12077503B2, “Substituted cyclic amides and their use as herbicides” (FMC CORPORATION, priority 2015, dated 2024).

Legend:
Assay type in all cases: in vivo
corn (Zea mays) [1] = test: Test G Post-Emergence Protocol; conditions: Zea mays, post-emergence, 312 h, read-out: Corn damage rating; for plant injury at 15.625 g/ha: 15.625 g ai/ha, evaluated after 13 days (100=total damage to plant; 0=no damage to plant); for plant injury at 62.5 g/ha: 62.5 g ai/ha; for plant injury at 62.5 g/ha / plant injury at 250 g/ha: evaluated after 13 days, 100=total damage to plant, 0=no damage to plant; for plant injury at 250 g/ha: 250 g ai/ha
Summary of the method: (§1)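 Sow in soil; grow 8 d (24/16 °C, 14 h light, 65% humidity); spray 15.625/62.5/250 g/ha in acetone:water 50:50 + 0.5% Tween 20; grow on, water twice daily; score damage 0–100 at 13 d.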

[2] = system: barnyardgrass (Echinochloa crus-galli); test: Test G Post-Emergence Protocol; conditions: Echinochloa crus-galli, post-emergence, 312 h, read-out: Barnyardgrass damage rating; for pest or weed control at 15.625 g/ha: 15.625 g ai/ha, evaluated after 13 days (100=total damage to plant; 0=no damage to plant); for pest or weed control at 62.5 g/ha: 62.5 g ai/ha; for pest or weed control at 62.5 g/ha / pest or weed control at 250 g/ha: evaluated after 13 days, 100=total damage to plant, 0=no damage to plant; for pest or weed control at 250 g/ha: 250 g ai/ha
Summary of the method: as §1

[3] = system: velvetleaf (Abutilon theophrasti); test: Test G Post-Emergence Protocol; conditions: Abutilon theophrasti, post-emergence, 312 h, read-out: Velvetleaf damage rating; for pest or weed control at 15.625 g/ha: 15.625 g ai/ha, evaluated after 13 days (100=total damage to plant; 0=no damage to plant); for pest or weed control at 62.5 g/ha: 62.5 g ai/ha; for pest or weed control at 62.5 g/ha / pest or weed control at 250 g/ha: evaluated after 13 days, 100=total damage to plant, 0=no damage to plant; for pest or weed control at 250 g/ha: 250 g ai/ha
Summary of the method: as §1

[4] = system: redroot pigweed (Amaranthus retroflexus); test: Test G Post-Emergence Protocol; conditions: Amaranthus retroflexus, post-emergence, 312 h, read-out: Pigweed, Redroot damage rating; for pest or weed control at 15.625 g/ha: 15.625 g ai/ha, evaluated after 13 days (100=total damage to plant; 0=no damage to plant); for pest or weed control at 62.5 g/ha: 62.5 g ai/ha; for pest or weed control at 62.5 g/ha / pest or weed control at 250 g/ha: evaluated after 13 days, 100=total damage to plant, 0=no damage to plant; for pest or weed control at 250 g/ha: 250 g ai/ha
Summary of the method: as §1

[5] = system: giant foxtail (Setaria faberi); test: Test G Post-Emergence Protocol; conditions: Setaria faberi, post-emergence, 312 h, read-out: Foxtail, Giant damage rating; for pest or weed control at 15.625 g/ha: 15.625 g ai/ha, evaluated after 13 days (100=total damage to plant; 0=no damage to plant); for pest or weed control at 62.5 g/ha: 62.5 g ai/ha; for pest or weed control at 62.5 g/ha / pest or weed control at 250 g/ha: evaluated after 13 days, 100=total damage to plant, 0=no damage to plant; for pest or weed control at 250 g/ha: 250 g ai/ha
Summary of the method: as §1

[6] = system: ivy-leaved morning glory (Ipomoea hederacea); test: Test G Post-Emergence Protocol; conditions: Ipomoea, post-emergence, 312 h, read-out: Morningglory, Ivy-leaved damage rating; for pest or weed control at 15.625 g/ha: 15.625 g ai/ha, evaluated after 13 days (100=total damage to plant; 0=no damage to plant); for pest or weed control at 62.5 g/ha: 62.5 g ai/ha; for pest or weed control at 62.5 g/ha / pest or weed control at 250 g/ha: evaluated after 13 days, 100=total damage to plant, 0=no damage to plant; for pest or weed control at 250 g/ha: 250 g ai/ha
Summary of the method: as §1

corn (Zea mays) [7] = test: Test G Pre-Emergence Protocol; conditions: Zea mays, pre-emergence, 312 h, evaluated after 13 days; for plant injury at 15.625 g/ha: 15.625 g ai/ha; for plant injury at 15.625 g/ha / plant injury at 250 g/ha: read-out: Corn damage rating (100=total damage to plant; 0=no damage to plant); for plant injury at 62.5 g/ha: 62.5 g ai/ha, 100=total damage to plant, 0=no damage to plant, read-out: Corn damage rating; for plant injury at 250 g/ha: 250 g ai/ha
Summary of the method: (§2)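 Test compound in 0.5% Tween 20 acetone/water (50:50) was applied at three rates (15.625, 62.5, 250 g/ha) to soil sown one day earlier. After 13 days plants were scored for injury, where 0 means unaffected and 100 means completely damaged.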

[8] = system: barnyardgrass (Echinochloa crus-galli); test: Test G Pre-Emergence Protocol; conditions: Echinochloa crus-galli, pre-emergence, 312 h, evaluated after 13 days; for pest or weed control at 15.625 g/ha: 15.625 g ai/ha; for pest or weed control at 15.625 g/ha / pest or weed control at 250 g/ha: read-out: Barnyardgrass damage rating (100=total damage to plant; 0=no damage to plant); for pest or weed control at 62.5 g/ha: 62.5 g ai/ha, 100=total damage to plant, 0=no damage to plant, read-out: Barnyardgrass damage rating; for pest or weed control at 250 g/ha: 250 g ai/ha
Summary of the method: as §2

[9] = system: velvetleaf (Abutilon theophrasti); test: Test G Pre-Emergence Protocol; conditions: Abutilon theophrasti, pre-emergence, 312 h, evaluated after 13 days; for pest or weed control at 15.625 g/ha: 15.625 g ai/ha; for pest or weed control at 15.625 g/ha / pest or weed control at 250 g/ha: read-out: Velvetleaf damage rating (100=total damage to plant; 0=no damage to plant); for pest or weed control at 62.5 g/ha: 62.5 g ai/ha, 100=total damage to plant, 0=no damage to plant, read-out: Velvetleaf damage rating; for pest or weed control at 250 g/ha: 250 g ai/ha
Summary of the method: as §2

[10] = system: redroot pigweed (Amaranthus retroflexus); test: Test G Pre-Emergence Protocol; conditions: Amaranthus retroflexus, pre-emergence, 312 h, evaluated after 13 days; for pest or weed control at 15.625 g/ha: 15.625 g ai/ha; for pest or weed control at 15.625 g/ha / pest or weed control at 250 g/ha: read-out: Pigweed, Redroot damage rating (100=total damage to plant; 0=no damage to plant); for pest or weed control at 62.5 g/ha: 62.5 g ai/ha, 100=total damage to plant, 0=no damage to plant, read-out: Pigweed, Redroot damage rating; for pest or weed control at 250 g/ha: 250 g ai/ha
Summary of the method: as §2

[11] = system: giant foxtail (Setaria faberi); test: Test G Pre-Emergence Protocol; conditions: Setaria faberi, pre-emergence, 312 h, evaluated after 13 days; for pest or weed control at 15.625 g/ha: 15.625 g ai/ha; for pest or weed control at 15.625 g/ha / pest or weed control at 250 g/ha: read-out: Foxtail, Giant damage rating (100=total damage to plant; 0=no damage to plant); for pest or weed control at 62.5 g/ha: 62.5 g ai/ha, 100=total damage to plant, 0=no damage to plant, read-out: Foxtail, Giant damage rating; for pest or weed control at 250 g/ha: 250 g ai/ha
Summary of the method: as §2

[12] = system: ivy-leaved morning glory (Ipomoea hederacea); test: Test G Pre-Emergence Protocol; conditions: Ipomoea, pre-emergence, 312 h, evaluated after 13 days; for pest or weed control at 15.625 g/ha: 15.625 g ai/ha; for pest or weed control at 15.625 g/ha / pest or weed control at 250 g/ha: read-out: Morningglory, Ivy-leaved damage rating (100=total damage to plant; 0=no damage to plant); for pest or weed control at 62.5 g/ha: 62.5 g ai/ha, 100=total damage to plant, 0=no damage to plant, read-out: Morningglory, Ivy-leaved damage rating; for pest or weed control at 250 g/ha: 250 g ai/ha
Summary of the method: as §2

Compound	plant injury at 15.625 g/ha (corn (Zea mays) [1]) [%]	plant injury at 62.5 g/ha (corn (Zea mays) [1]) [%]	plant injury at 250 g/ha (corn (Zea mays) [1]) [%]	pest or weed control at 15.625 g/ha [2] [%]	pest or weed control at 62.5 g/ha [2] [%]	pest or weed control at 250 g/ha [2] [%]	pest or weed control at 15.625 g/ha [3] [%]	pest or weed control at 62.5 g/ha [3] [%]	pest or weed control at 250 g/ha [3] [%]	pest or weed control at 15.625 g/ha [4] [%]	pest or weed control at 62.5 g/ha [4] [%]	pest or weed control at 250 g/ha [4] [%]	pest or weed control at 15.625 g/ha [5] [%]	pest or weed control at 62.5 g/ha [5] [%]	pest or weed control at 250 g/ha [5] [%]	pest or weed control at 15.625 g/ha [6] [%]	pest or weed control at 62.5 g/ha [6] [%]	pest or weed control at 250 g/ha [6] [%]	plant injury at 15.625 g/ha (corn (Zea mays) [7]) [%]	plant injury at 62.5 g/ha (corn (Zea mays) [7]) [%]	further results
CCCOc1cc(C2CN(C)C(=O)C2C(=O)Nc2cccc(F)c2F)cc(C(F)(F)F)c1 (stereo not drawn) [Compound 1725]	10	0	70	0	30	70	0	0	10	0	10	60	0	70	80	30	70	70	0	0	plant injury at 250 g/ha (corn (Zea mays) [7]): 30%; pest or weed control at 15.625 g/ha [8]: 20%; pest or weed control at 62.5 g/ha [8]: 50%; pest or weed control at 250 g/ha [8]: 70%; pest or weed control at 15.625 g/ha [9]: 0%; pest or weed control at 62.5 g/ha [9]: 0%; pest or weed control at 250 g/ha [9]: 0%; pest or weed control at 15.625 g/ha [10]: 0%; pest or weed control at 62.5 g/ha [10]: 0%; pest or weed control at 250 g/ha [10]: 20%; pest or weed control at 15.625 g/ha [11]: 20%; pest or weed control at 62.5 g/ha [11]: 50%; pest or weed control at 250 g/ha [11]: 80%; pest or weed control at 15.625 g/ha [12]: 0%; pest or weed control at 62.5 g/ha [12]: 0%; pest or weed control at 250 g/ha [12]: 0%
CN1C[C@@H](c2ccc(CO)cc2)[C@H](C(=O)Nc2cccc(F)c2F)C1=O (racemic) [Compound 1820]	0	0	0	0	0	0	0	0	0	0	0	0	0	0	0	0	0	0	0	0	plant injury at 250 g/ha (corn (Zea mays) [7]): 0%; pest or weed control at 15.625 g/ha [8]: 0%; pest or weed control at 62.5 g/ha [8]: 0%; pest or weed control at 250 g/ha [8]: 0%; pest or weed control at 15.625 g/ha [9]: 0%; pest or weed control at 62.5 g/ha [9]: 0%; pest or weed control at 250 g/ha [9]: 0%; pest or weed control at 15.625 g/ha [10]: 0%; pest or weed control at 62.5 g/ha [10]: 0%; pest or weed control at 250 g/ha [10]: 0%; pest or weed control at 15.625 g/ha [11]: 0%; pest or weed control at 62.5 g/ha [11]: 0%; pest or weed control at 250 g/ha [11]: 0%; pest or weed control at 15.625 g/ha [12]: 0%; pest or weed control at 62.5 g/ha [12]: 0%; pest or weed control at 250 g/ha [12]: 0%
CN1C[C@@H](c2cc(Br)cc(Oc3ccccc3)c2)[C@H](C(=O)Nc2cccc(F)c2F)C1=O (racemic) [Compound 1821]	10	10	30	0	0	0	0	10	0	0	30	70	0	10	30	0	0	10	0	10	plant injury at 250 g/ha (corn (Zea mays) [7]): 0%; pest or weed control at 15.625 g/ha [8]: 0%; pest or weed control at 62.5 g/ha [8]: 0%; pest or weed control at 250 g/ha [8]: 0%; pest or weed control at 15.625 g/ha [9]: 0%; pest or weed control at 62.5 g/ha [9]: 0%; pest or weed control at 250 g/ha [9]: 0%; pest or weed control at 15.625 g/ha [10]: 0%; pest or weed control at 62.5 g/ha [10]: 0%; pest or weed control at 250 g/ha [10]: 20%; pest or weed control at 15.625 g/ha [11]: 0%; pest or weed control at 62.5 g/ha [11]: 10%; pest or weed control at 250 g/ha [11]: 60%; pest or weed control at 15.625 g/ha [12]: 0%; pest or weed control at 62.5 g/ha [12]: 0%; pest or weed control at 250 g/ha [12]: 0%
